Reference: ChEMBL document CHEMBL5291721, “A preclinical secondary pharmacology resource illuminates target-adverse drug reaction associations of marketed drugs” (Nat Commun, 2023)

Experiments:
[1] = target: Voltage-gated inwardly rectifying potassium channel KCNH2 (Homo sapiens, UniProt Q12809); assay type: functional
[2] = target: Acetylcholinesterase (Homo sapiens, UniProt P22303); assay type: functional
[3] = target: T1, Alpha-1A adrenergic receptor (Homo sapiens, UniProt P35348); assay type: functional, cell-based
T1 sequence (P35348 whole entry): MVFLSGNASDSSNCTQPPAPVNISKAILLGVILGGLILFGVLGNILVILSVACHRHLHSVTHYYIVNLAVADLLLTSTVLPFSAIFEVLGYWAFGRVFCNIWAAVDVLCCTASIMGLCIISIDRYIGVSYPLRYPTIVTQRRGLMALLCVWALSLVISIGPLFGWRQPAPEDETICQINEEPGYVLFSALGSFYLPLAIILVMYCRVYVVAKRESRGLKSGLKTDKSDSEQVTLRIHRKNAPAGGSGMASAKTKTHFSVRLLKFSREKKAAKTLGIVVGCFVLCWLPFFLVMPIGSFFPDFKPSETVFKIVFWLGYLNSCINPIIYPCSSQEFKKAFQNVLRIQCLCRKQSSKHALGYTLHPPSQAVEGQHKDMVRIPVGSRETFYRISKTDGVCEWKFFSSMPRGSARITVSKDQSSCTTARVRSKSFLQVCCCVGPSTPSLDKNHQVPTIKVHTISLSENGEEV

[4] = target: D(1A) dopamine receptor (Homo sapiens, UniProt P21728)
D(1A) dopamine receptor, sequence (P21728 whole entry): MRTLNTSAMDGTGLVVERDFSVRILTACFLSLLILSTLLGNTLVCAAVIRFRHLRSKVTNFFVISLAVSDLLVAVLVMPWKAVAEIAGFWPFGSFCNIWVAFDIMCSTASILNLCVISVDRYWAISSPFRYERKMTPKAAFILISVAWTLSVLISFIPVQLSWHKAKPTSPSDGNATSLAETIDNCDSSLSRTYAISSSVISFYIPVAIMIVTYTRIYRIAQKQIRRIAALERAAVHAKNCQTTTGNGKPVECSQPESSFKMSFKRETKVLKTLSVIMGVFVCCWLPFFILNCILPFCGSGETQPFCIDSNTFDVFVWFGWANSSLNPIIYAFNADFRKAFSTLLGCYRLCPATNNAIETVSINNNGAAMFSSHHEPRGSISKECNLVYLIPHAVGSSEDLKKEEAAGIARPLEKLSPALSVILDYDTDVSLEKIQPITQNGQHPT

[5] = target: D(3) dopamine receptor (Homo sapiens, UniProt P35462)
D(3) dopamine receptor, sequence (P35462 whole entry): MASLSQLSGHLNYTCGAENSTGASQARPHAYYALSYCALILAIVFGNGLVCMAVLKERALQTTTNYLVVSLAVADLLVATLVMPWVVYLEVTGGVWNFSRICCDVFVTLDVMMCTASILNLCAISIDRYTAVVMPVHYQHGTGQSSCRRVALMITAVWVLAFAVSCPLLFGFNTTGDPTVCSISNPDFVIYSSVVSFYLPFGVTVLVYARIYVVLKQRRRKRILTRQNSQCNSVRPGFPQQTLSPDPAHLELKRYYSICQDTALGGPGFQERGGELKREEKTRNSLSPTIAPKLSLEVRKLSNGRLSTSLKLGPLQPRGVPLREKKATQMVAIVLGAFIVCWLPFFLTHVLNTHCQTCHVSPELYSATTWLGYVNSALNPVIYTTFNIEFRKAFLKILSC

[6] = target: Prothrombin (Homo sapiens, UniProt P00734); assay type: functional
[7] = target: T2, Amine oxidase [flavin-containing] A (Homo sapiens, UniProt P21397); assay type: functional
T2 sequence (P21397 whole entry): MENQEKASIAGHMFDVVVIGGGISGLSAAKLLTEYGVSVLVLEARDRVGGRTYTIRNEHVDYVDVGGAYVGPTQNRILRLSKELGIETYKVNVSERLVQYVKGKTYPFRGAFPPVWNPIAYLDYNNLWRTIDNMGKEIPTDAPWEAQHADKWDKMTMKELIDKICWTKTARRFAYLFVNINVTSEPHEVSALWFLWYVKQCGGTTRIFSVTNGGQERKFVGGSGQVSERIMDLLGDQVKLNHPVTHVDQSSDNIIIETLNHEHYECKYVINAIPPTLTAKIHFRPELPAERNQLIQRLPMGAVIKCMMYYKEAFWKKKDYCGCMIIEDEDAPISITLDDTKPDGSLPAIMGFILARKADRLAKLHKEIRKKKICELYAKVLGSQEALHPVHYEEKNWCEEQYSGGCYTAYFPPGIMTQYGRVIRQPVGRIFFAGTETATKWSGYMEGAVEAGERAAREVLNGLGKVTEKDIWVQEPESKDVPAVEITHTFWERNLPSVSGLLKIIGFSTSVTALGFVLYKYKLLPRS

[8] = target: Mu-type opioid receptor (Homo sapiens, UniProt P35372)
Mu-type opioid receptor, sequence (P35372 whole entry): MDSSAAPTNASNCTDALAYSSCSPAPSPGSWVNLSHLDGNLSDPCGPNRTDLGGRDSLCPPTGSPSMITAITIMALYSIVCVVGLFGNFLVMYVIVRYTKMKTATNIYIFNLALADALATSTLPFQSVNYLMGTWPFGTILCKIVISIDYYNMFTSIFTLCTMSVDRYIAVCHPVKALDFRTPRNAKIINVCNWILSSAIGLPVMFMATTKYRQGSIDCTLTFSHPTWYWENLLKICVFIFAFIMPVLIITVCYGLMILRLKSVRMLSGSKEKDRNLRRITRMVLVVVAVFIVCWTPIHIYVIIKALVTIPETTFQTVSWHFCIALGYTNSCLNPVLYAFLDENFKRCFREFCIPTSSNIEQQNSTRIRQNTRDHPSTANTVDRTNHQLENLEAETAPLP

[9] = target: cGMP-inhibited 3',5'-cyclic phosphodiesterase 3A (Homo sapiens, UniProt Q14432); assay type: functional
cGMP-inhibited 3',5'-cyclic phosphodiesterase 3A, sequence (Q14432 whole entry): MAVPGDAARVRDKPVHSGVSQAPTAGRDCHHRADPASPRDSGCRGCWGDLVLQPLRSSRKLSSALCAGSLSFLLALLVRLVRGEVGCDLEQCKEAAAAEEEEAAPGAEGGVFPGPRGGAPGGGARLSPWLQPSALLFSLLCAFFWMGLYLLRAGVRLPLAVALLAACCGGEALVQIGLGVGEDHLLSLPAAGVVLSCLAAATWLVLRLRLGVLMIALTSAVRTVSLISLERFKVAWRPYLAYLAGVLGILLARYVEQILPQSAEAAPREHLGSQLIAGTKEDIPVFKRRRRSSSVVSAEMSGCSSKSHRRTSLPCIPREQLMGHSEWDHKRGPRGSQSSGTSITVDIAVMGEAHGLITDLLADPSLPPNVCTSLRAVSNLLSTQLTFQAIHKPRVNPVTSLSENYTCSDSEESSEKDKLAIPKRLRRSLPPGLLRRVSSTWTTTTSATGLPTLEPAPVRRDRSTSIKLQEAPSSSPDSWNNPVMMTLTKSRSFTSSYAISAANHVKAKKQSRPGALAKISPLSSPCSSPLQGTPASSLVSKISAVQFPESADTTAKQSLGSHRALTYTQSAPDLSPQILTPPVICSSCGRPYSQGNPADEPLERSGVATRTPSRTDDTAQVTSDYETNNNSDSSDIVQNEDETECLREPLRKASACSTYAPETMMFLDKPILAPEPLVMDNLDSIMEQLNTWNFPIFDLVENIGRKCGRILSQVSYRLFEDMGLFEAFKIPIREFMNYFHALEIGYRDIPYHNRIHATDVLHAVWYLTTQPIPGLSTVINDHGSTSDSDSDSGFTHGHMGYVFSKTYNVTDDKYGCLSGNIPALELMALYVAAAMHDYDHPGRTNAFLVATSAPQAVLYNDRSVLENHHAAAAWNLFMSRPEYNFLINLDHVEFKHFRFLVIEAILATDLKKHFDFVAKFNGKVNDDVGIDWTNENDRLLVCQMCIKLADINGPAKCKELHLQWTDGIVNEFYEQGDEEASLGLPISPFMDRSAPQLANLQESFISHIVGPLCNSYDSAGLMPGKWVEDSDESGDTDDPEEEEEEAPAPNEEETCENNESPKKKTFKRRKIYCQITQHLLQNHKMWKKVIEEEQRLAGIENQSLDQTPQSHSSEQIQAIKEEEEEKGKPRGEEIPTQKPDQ

[10] = target: 3',5'-cyclic-AMP phosphodiesterase 4A (Homo sapiens, UniProt P27815); assay type: functional
3',5'-cyclic-AMP phosphodiesterase 4A, sequence (P27815 whole entry): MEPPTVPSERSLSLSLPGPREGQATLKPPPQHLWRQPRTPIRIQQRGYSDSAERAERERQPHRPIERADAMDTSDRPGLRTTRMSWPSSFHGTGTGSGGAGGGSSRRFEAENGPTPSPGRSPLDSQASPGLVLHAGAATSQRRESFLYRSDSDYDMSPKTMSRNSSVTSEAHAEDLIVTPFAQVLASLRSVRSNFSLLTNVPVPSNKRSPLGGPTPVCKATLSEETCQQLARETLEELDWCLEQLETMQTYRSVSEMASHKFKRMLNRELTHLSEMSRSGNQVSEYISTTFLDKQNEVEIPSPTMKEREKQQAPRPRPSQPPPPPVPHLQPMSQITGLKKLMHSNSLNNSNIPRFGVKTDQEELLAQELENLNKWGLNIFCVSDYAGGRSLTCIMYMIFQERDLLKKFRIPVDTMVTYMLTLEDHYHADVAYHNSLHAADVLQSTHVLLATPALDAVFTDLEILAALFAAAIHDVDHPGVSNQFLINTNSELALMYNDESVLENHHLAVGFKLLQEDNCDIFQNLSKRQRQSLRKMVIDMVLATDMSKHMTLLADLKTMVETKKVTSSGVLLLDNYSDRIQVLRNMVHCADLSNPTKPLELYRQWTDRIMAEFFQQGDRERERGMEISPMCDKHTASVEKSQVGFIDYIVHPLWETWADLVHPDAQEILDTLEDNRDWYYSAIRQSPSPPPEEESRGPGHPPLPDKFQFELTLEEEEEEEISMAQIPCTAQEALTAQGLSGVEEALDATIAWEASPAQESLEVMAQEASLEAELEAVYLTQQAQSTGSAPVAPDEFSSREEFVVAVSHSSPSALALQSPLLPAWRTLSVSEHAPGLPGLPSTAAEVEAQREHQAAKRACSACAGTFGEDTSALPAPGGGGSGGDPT

[11] = target: T3, Progesterone receptor (Homo sapiens, UniProt P06401)
T3 sequence (P06401 whole entry): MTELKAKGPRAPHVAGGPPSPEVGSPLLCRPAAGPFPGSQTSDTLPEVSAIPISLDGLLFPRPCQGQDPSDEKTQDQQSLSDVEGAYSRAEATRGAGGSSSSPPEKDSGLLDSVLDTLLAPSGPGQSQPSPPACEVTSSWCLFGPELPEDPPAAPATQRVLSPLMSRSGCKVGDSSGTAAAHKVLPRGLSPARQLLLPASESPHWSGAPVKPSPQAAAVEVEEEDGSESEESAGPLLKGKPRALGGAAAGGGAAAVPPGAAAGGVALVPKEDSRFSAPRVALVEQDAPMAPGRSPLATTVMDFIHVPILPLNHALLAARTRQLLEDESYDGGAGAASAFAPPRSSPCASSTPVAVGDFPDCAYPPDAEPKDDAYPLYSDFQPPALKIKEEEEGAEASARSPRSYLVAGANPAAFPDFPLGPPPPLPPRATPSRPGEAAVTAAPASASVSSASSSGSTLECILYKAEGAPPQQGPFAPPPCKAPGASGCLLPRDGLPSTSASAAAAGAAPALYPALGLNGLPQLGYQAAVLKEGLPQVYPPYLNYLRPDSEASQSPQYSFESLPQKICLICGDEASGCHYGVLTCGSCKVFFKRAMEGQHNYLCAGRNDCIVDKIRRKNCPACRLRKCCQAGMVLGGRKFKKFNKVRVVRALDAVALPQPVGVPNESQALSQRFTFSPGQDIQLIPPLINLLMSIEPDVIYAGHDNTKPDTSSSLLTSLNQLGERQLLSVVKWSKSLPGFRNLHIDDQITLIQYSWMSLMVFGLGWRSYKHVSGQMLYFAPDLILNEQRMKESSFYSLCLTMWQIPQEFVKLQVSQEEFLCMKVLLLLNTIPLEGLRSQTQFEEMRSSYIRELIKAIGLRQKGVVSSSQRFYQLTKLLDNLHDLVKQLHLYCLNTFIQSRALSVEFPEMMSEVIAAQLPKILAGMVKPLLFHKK

[12] = target: Sodium-dependent dopamine transporter (Homo sapiens, UniProt Q01959)
[13] = target: T4, Thromboxane A2 receptor (Homo sapiens, UniProt P21731); assay type: functional, cell-based
T4 sequence (P21731 whole entry): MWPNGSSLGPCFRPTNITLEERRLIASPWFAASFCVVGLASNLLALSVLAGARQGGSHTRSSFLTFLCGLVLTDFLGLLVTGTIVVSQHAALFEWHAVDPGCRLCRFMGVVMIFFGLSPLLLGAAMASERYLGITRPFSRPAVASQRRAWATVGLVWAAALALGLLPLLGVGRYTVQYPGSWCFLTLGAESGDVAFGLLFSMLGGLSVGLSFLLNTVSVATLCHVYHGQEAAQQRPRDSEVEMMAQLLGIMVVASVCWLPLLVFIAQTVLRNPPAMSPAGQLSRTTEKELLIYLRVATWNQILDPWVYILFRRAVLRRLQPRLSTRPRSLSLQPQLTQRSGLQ

[14] = target: T5, Prostaglandin G/H synthase 1 (Homo sapiens, UniProt P23219); assay type: functional
[15] = target: T5, Prostaglandin G/H synthase 1; assay type: functional; remark: listed apart in the source
Note: assay procedure not described here.

Voltage-gated inwardly rectifying potassium channel KCNH2, sequence (Q12809 whole entry): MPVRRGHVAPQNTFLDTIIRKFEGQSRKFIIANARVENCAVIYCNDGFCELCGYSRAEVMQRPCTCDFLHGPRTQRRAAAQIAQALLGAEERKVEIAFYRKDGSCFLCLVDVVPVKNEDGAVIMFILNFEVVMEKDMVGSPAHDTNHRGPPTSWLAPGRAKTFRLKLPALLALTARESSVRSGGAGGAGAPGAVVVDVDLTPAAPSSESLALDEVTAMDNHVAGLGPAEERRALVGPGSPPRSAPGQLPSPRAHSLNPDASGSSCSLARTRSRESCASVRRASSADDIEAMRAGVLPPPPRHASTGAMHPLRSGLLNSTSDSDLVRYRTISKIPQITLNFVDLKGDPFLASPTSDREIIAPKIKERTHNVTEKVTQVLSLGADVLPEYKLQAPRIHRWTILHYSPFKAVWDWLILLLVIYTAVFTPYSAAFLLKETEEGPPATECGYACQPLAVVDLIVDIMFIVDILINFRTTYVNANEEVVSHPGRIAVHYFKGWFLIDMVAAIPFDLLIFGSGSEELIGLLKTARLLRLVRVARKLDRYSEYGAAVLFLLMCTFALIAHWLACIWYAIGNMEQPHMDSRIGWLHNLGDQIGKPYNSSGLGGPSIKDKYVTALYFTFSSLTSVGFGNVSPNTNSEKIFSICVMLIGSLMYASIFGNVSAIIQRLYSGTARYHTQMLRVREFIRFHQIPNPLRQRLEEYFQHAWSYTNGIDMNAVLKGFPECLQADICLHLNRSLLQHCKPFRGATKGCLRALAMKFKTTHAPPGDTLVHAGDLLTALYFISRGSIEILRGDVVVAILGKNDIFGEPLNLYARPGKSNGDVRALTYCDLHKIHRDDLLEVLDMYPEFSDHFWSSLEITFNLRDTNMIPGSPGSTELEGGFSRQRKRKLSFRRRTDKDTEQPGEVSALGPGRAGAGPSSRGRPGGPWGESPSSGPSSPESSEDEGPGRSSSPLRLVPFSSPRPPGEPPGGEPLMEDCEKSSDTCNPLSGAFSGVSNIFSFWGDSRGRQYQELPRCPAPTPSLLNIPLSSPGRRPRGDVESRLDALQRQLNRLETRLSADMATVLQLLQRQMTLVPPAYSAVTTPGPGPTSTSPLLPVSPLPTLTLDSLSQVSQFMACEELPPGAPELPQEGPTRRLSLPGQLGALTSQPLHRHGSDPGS
Acetylcholinesterase, sequence (P22303 whole entry): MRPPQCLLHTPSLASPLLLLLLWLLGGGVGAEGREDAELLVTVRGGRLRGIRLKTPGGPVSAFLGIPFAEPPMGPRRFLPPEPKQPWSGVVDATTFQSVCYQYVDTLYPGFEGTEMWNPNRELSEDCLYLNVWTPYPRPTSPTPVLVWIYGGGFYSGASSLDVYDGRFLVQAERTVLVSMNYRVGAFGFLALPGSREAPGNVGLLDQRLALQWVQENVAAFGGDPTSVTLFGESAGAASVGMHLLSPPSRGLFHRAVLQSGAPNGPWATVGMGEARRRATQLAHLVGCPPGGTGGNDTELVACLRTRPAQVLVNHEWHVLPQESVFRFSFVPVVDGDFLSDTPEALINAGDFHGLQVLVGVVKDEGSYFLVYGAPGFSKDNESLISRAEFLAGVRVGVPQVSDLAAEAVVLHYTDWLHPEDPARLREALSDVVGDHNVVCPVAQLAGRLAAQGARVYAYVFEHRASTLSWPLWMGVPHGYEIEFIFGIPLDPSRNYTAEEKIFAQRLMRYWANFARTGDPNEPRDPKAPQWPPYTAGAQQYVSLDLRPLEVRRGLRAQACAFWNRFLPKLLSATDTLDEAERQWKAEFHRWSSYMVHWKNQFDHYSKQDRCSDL

CCOc1nc2cccc(C(=O)O)c2n1Cc1ccc(-c2ccccc2-c2nnn[nH]2)cc1
AC50 [1]: > 30 µM

CC(=O)Nc1ccc(CC(=O)O)cc1 [ACTARIT]
AC50 [1]: > 30 µM

CC(C(=O)O)c1ccc2oc(-c3ccc(Cl)cc3)nc2c1 (stereo not drawn) [BENOXAPROFEN]
AC50 [1]: > 30 µM

Nc1c(CC(=O)O)cccc1C(=O)c1ccc(Br)cc1 [BROMFENAC]
AC50 [2]: > 30 µM | AC50 [3]: > 30 µM | AC50 [4]: > 30 µM | AC50 [5]: > 30 µM | AC50 [6]: > 30 µM | AC50 [1]: > 30 µM | AC50 [7]: > 30 µM | AC50 [8]: > 30 µM | AC50 [9]: > 30 µM | AC50 [10]: > 30 µM | AC50 [11]: > 30 µM | AC50 [12]: > 30 µM | AC50 [13]: > 30 µM

CC1(C)S[C@@H]2[C@H](NC(=O)C(C(=O)O)c3ccccc3)C(=O)N2[C@H]1C(=O)O (stereo partly drawn) [CARBENICILLIN]
AC50 [1]: > 30 µM

Cc1nnc(SCC2=C(C(=O)O)N3C(=O)[C@@H](NC(=O)Cn4cnnn4)[C@H]3SC2)s1 [CEFAZOLIN]
AC50 [1]: > 300 µM

CC=CC1=C(C(=O)O)N2C(=O)[C@@H](NC(=O)[C@H](N)c3ccc(O)cc3)[C@H]2SC1 [CEFPROZIL]
AC50 [1]: > 30 µM

CC(C)(O/N=C(\C(=O)N[C@@H]1C(=O)N2C(C(=O)[O-])=C(C[n+]3ccccc3)CS[C@H]12)c1csc(N)n1)C(=O)O [CEFTAZIDIME]
AC50 [1]: > 300 µM

CC(C)NC(=N)NC(=N)Nc1ccc(Cl)c(Cl)c1 [CHLORPROGUANIL]
AC50 [2]: > 30 µM | AC50 [4]: 1.77 µM | AC50 [5]: > 30 µM | AC50 [6]: > 30 µM | AC50 [1]: 2.6 µM | AC50 [7]: > 30 µM | AC50 [8]: 11.2 µM | AC50 [9]: > 30 µM | AC50 [10]: > 30 µM | AC50 [11]: > 30 µM | AC50 [14]: > 30 µM | AC50 [15]: > 30 µM | AC50 [12]: 1.86 µM | AC50 [13]: > 30 µM

CCCNC(=O)NS(=O)(=O)c1ccc(Cl)cc1 [CHLORPROPAMIDE]
AC50 [1]: > 30 µM

Clc1ccc(Cn2c(CN3CCCC3)nc3ccccc32)cc1 [CLEMIZOLE]
AC50 [1]: 0.86 µM

CCC(=O)O[C@]1(C(=O)CCl)[C@@H](C)C[C@H]2[C@@H]3CCC4=CC(=O)C=C[C@]4(C)[C@@]3(F)[C@@H](O)C[C@@]21C [CLOBETASOL PROPIONATE]
AC50 [1]: > 30 µM

O=C(O)Cc1ccccc1Nc1c(Cl)cccc1Cl [DICLOFENAC]
AC50 [2]: > 3 µM | AC50 [3]: > 3 µM | AC50 [4]: > 3 µM | AC50 [5]: > 3 µM | AC50 [6]: > 3 µM | AC50 [1]: > 30 µM | AC50 [7]: > 3 µM | AC50 [8]: > 3 µM | AC50 [9]: > 3 µM | AC50 [10]: > 3 µM | AC50 [11]: > 3 µM | AC50 [12]: > 3 µM | AC50 [13]: > 3 µM

CN[C@@H]1[C@H](O[C@H]2[C@H](O[C@H]3[C@H](O)[C@@H](O)[C@H](NC(=N)N)[C@@H](O)[C@@H]3NC(=N)N)O[C@@H](C)[C@]2(O)CO)O[C@@H](CO)[C@H](O)[C@H]1O [DIHYDROSTREPTOMYCIN]
AC50 [2]: > 30 µM | AC50 [4]: > 30 µM | AC50 [5]: > 30 µM | AC50 [6]: > 30 µM | AC50 [7]: > 30 µM | AC50 [8]: > 30 µM | AC50 [9]: > 30 µM | AC50 [10]: > 30 µM | AC50 [11]: > 30 µM | AC50 [14]: > 30 µM | AC50 [15]: > 30 µM | AC50 [12]: > 30 µM | AC50 [13]: > 30 µM

CNC[C@H](O)c1ccc(O)c(O)c1 [EPINEPHRINE]
AC50 [1]: > 30 µM

Cc1onc(-c2c(F)cccc2Cl)c1C(=O)N[C@@H]1C(=O)N2[C@@H]1SC(C)(C)[C@@H]2C(=O)O [FLOXACILLIN]
AC50 [1]: > 30 µM

C#C[C@]1(O)C=C[C@H]2[C@@H]3CCC4=CC(=O)CC[C@@H]4[C@H]3CC[C@@]21CC [GESTODENE]
AC50 [2]: > 30 µM | AC50 [4]: > 30 µM | AC50 [5]: > 30 µM | AC50 [6]: > 30 µM | AC50 [7]: > 30 µM | AC50 [8]: 14.9 µM | AC50 [9]: > 30 µM | AC50 [10]: > 30 µM | AC50 [11]: 0.003 µM | AC50 [14]: > 30 µM | AC50 [15]: > 30 µM | AC50 [12]: > 30 µM | AC50 [13]: > 30 µM

CC[C@@H](CO)NC(=O)[C@@H]1C=C2c3cccc4c3c(cn4C)C[C@H]2N(C)C1 [METHYSERGIDE]
AC50 [1]: > 30 µM

CNC(=C[N+](=O)[O-])NCCSCc1csc(CN(C)C)n1 [NIZATIDINE]
AC50 [1]: > 30 µM

CN1Cc2c(N)cccc2C(c2ccccc2)C1 (stereo not drawn) [NOMIFENSINE]
AC50 [1]: 4.8 µM

CC(CN1c2ccccc2Sc2ccccc21)N(C)C (stereo not drawn) [PROMETHAZINE]
AC50 [2]: > 30 µM | AC50 [4]: 1.72 µM | AC50 [5]: 0.46 µM | AC50 [6]: > 30 µM | AC50 [1]: 0.922 µM | AC50 [7]: > 30 µM | AC50 [9]: > 30 µM | AC50 [10]: > 30 µM | AC50 [11]: > 30 µM | AC50 [14]: > 30 µM | AC50 [12]: > 30 µM | AC50 [13]: > 30 µM

CCCc1cc(=O)[nH]c(=S)[nH]1 [PROPYLTHIOURACIL]
AC50 [1]: > 30 µM

Cn1cc(C(=O)[C@@H]2CCc3nc[nH]c3C2)c2ccccc21 [RAMOSETRON]
AC50 [1]: 4.7 µM

CN(CCOc1ccc(CC2SC(=O)NC2=O)cc1)c1ccccn1 (stereo not drawn) [ROSIGLITAZONE]
AC50 [1]: 13 µM

S=P(N1CC1)(N1CC1)N1CC1 [THIOTEPA]
AC50 [1]: 9.6 µM

CC(C)C[C@H](NC(=O)[C@@H](O)[C@H](N)Cc1ccccc1)C(=O)O [UBENIMEX]
AC50 [2]: > 30 µM | AC50 [4]: > 30 µM | AC50 [5]: > 30 µM | AC50 [6]: > 30 µM | AC50 [1]: > 30 µM | AC50 [7]: > 30 µM | AC50 [8]: > 30 µM | AC50 [9]: > 30 µM | AC50 [10]: > 30 µM | AC50 [11]: > 30 µM | AC50 [14]: > 30 µM | AC50 [15]: > 30 µM | AC50 [12]: > 30 µM | AC50 [13]: > 30 µM

CC(C)[C@H](N)C(=O)OCCOCn1cnc2c(=O)[nH]c(N)nc21 [VALACYCLOVIR]
AC50 [1]: > 30 µM

COc1cc(C(=O)NS(=O)(=O)c2ccccc2C)ccc1Cc1cn(C)c2ccc(NC(=O)OC3CCCC3)cc12 [ZAFIRLUKAST]
AC50 [1]: > 30 µM
